Measured values from patent publication US11242349B2, “Ethynyl derivatives” (Hoffmann-La Roche Inc., priority 2016, dated 2022).
Like-named read-outs stand apart in the source and are kept apart here.

How the values were obtained:
[1] = mice treated with MPTP; cited from earlier work
[2] = mice; preclinical model of anxiety; cited from earlier work
[3] = mice; preclinical model of anxiety; cited from earlier work; remark: listed apart in the source
[4] = cited from earlier work
[5] = molecular target: recombinant human mGlu4 expressed in HEK293 cells (Homo sapiens (Human), UniProt Q14833); assay: Ca2+ mobilization in vitro assay, mGlu4 PAM; assay type: cell-based; details: for EC50: HEK293 cells, human mGlu4, with EC20 of L-AP4; for Eff. (%): maximal response in % of maximal stimulatory effect of saturating L-AP4
Experimental: Determination of EC50 values using a Ca2+ mobilization in vitro assay on recombinant human mGlu4 expressed in HEK293 cells:
A monoclonal HEK-293 cell line stably transfected with a cDNA encoding for the human mGlu4 receptor was generated; for the work with mGlu4 Positive Allosteric Modulators (PAMs), a cell line with low receptor expression levels and low constitutive receptor activity was selected to allow the differentiation of agonistic versus PAM activity. Cells were cultured according to standard protocols (Freshney, 2000) in Dulbecco's Modified Eagle Medium with high glucose supplemented with 1 mM glutamine, 10% (vol/vol) heat-inactivated bovine calf serum, Penicillin/Streptomycin, 50 μg/ml hygromycin and 15 μg/ml blasticidin (all cell culture reagents and antibiotics from Invitrogen, Basel, Switzerland). About 24 hrs before an experiment, 5×10^4 cells/well were seeded in poly-D-lysine coated, black/clear-bottomed 96-well plates. The cells were loaded with 2.5 μM Fluo-4AM in loading buffer (1×HBSS, 20 mM HEPES) for 1 hr at 37° C. and washed five times with loading buffer. The cells were transferred into a Functional Drug Screening System 7000 (Hamamatsu, Paris, France), and 11 half logarithmic serial dilutions of test compound at 37° C. were added and the cells were incubated for 10-30 min. with on-line recording of fluorescence. […] Graphs were plotted with the % maximal stimulatory using XLfit, a curve fitting program that iteratively plots the data using Levenburg Marquardt algorithm. The single site competition analysis equation used was y=A+((B-A)/(1+((x/C)D))), where y is the % maximal stimulatory effect, A is the minimum y, B is the maximum y, C is the EC50, x is the log 10 of the concentration of the competing compound and D is the slope of the curve (the Hill Coefficient).
FIG. 1: Illustration of the experimental outline for mGlu4 PAM Ca2+ mobilization screening assay and the determination of EC50 and % Emax values.

Chain of recombinant human mGlu4 expressed in HEK293 cells (Q14833 33-912): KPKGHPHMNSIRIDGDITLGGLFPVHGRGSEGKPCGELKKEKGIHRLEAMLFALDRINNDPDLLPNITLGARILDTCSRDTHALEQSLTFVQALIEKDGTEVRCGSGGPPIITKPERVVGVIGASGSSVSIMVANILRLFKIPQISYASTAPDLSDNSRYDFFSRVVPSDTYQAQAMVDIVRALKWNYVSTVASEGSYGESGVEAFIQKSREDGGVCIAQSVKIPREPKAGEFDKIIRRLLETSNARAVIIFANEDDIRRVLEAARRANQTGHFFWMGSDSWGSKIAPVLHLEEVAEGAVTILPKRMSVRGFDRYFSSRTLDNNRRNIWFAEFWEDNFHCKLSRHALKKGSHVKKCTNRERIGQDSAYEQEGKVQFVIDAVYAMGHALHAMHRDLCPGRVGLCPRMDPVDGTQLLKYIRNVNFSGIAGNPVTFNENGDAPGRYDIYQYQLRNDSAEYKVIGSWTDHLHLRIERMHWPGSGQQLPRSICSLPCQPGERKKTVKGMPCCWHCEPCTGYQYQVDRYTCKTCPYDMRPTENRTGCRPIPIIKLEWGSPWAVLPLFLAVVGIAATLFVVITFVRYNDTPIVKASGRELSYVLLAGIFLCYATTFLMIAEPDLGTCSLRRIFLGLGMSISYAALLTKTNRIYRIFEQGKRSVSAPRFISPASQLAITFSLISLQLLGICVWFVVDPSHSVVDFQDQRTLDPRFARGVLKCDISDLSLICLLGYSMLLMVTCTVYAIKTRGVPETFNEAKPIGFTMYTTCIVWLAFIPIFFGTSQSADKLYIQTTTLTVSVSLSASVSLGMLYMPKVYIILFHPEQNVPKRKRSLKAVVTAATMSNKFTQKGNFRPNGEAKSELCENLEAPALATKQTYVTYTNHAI

## O=C(Nc1ccccc1)C12CC1/C(=N\O)c1ccccc1O2 (single isomer, unassigned; (-)) [(−)-PHCCC]
[1]
  nigrostriatal degeneration: reduced nigrostriatal degeneration

## Cc1ccnc(Nc2nc(-c3cn[nH]c3)c(C)s2)n1 [ADX88178]
[2]
  activity in marble burying test: active
[3]
  activity in EPM: active
[4]; rat, after oral dosing
  profile in rat EPM test: anxiolytic-like profile
[4]; rats, preclinical model of anxiety
  activity in EPM: active

## CCn1cc2c(n1)CCC[C@]21CC(=O)N(c2c(F)cc(C#Cc3ccccc3)cc2F)C(=O)N1C [Example 1, (4S)-3′-[2,6-Difluoro-4-(2-phenylethynyl)phenyl]-2-ethyl-1′-methyl-spiro[6,7-dihydro-5H-indazole-4,6′-hexahydropyrimidine]-2′,4′-dione]
[5]
  EC50: 77 nM
  Eff. (%): 132%

## CCn1ncc2c1CCC[C@]21CC(=O)N(c2c(F)cc(C#Cc3ccccc3)cc2F)C(=O)N1C [Example 2, (4S)-3′-[2,6-Difluoro-4-(2-phenylethynyl)phenyl]-1-ethyl-1′-methyl-spiro[6,7-dihydro-5H-indazole-4,6′-hexahydropyrimidine]-2′,4′-dione]
[5]
  EC50: 85 nM
  Eff. (%): 136%
